Data as given in patent US10946059B2, “Formulation containing an extract of Alpinia galanga, a process for the preparation thereof, and uses thereof” (priority 2017, dated 2021).

Key:
Type in all cases: in vivo, human
[1] = tested on: subjects (male and female) habituated to average caffeine consumption; test: Attention Network Test (CRSD-ANT), Example 1: mean response time, alertness, orientation, executive attention; details: day 7 after IP, compared to placebo
Procedure: Only right-handed subjects were included in the study to avoid spatial bias. […] The subjects had to refrain from smoking 24 h before study onset and refrain from alcohol intake throughout the study. Subjects with a history or presence of clinically important cardiac, renal, hepatic, endocrine (including diabetes mellitus), pulmonary, biliary, gastrointestinal, pancreatic, or neurological disorders and uncontrolled hypertension were excluded from the study. For each subject, the study was terminated after data collection on the assessment day. […] The IPs included Cymbopogon flexuosus (LG), water-soluble and water-insoluble extracts of Alpinia galanga (AG1 and AG2 respectively), and water-soluble and water-insoluble extracts of Glycyrrhiza glabra (GG1 and GG2 respectively). All interventions were administered to subjects in the form of identical capsules that had been packed in duly labeled HDPE bottles. […] The subjects were allowed to drink water as desired and allowed to relax in an isolated room at a comfortable temperature and were free to use a computer, listen to music, or read magazines during the clinic stay period. […] To ensure treatment compliance, product accountability was monitored by a clinical research coordinator on the following visit. […] Effects of IPs on different aspects of the attention network, such as alertness, orientation, and executive control, were also assessed by ANT. […]

healthy young volunteers [2] = test: Attention network test (ANT 1.3.0), mental alertness, Example 2
Source text: The subjects were then screened. […] The subjects with body mass index (BMI) between 18.50 and 25.00 kg/m2 and a resting blood pressure≤140/90 mm Hg were considered eligible. To avoid subjects with psychotic disorders such as anxiety, depression, ADD or ADHD, subjects with Generalized Anxiety Disorder Screening (GAD-7) score≥7 & Patient Health Questionnaire-9 (PHQ-9) score≥14 were excluded from the study. Subjects with alertness score (Jin Fan's Attention Network Test, version 1.3.0) of 50±20 milliseconds at screening visit were considered eligible. Concomitant therapy was strictly prohibited in order to exclude any significant effect on the results. All the subjects were instructed thoroughly on the investigation procedures.
Subjects reported to the clinic during the morning hours and testing began at early time of day (8:00-9:00 a.m.) for each visit to avoid influence of daily challenges (related to mental and physical stress) on outcomes and the time of day was matched for all three visits to reduce variability in response due to diurnal pattern. […] Subjects were also instructed to obtain sufficient sleep during the night prior to testing which was confirmed using sleep diary. Upon arrival at clinic, subjects were asked to rest quietly for 15-20 minutes after which vital parameters were measured and a standardized meal of approximately 200 calories was provided to control variations from possible digestion confounds. Baseline data were collected 30 minutes post breakfast followed by administration of IP, wherein one dose of the product was administered to subject by trial coordinator at investigational site.
Post ingestion of IP, data were collected at 1, 3, and 5 hours. No other food or calorie-containing beverages were provided. Subjects were allowed to drink water as desired. Subjects were allowed to relax in an isolated room at a comfortable temperature and free to use the computer, listen to music or read magazines during the clinic stay period. To analyze the effect on IP on sleep architecture, a second dose was supplied in a labeled bottle to be taken before dinner in the night of the same day and subjects were asked to record all the details pertaining to sleep quality and duration in sleep diary. To ensure treatment compliance, product accountability was monitored by clinical research coordinator on the following visit.
The primary efficacy variable was mental alertness. Alertness is defined as achieving and maintaining a state of high sensitivity to incoming stimuli. The Attention network test (ANT) was implemented for this purpose as it provides a behavioral measure of the efficiency of the different components of attention networks separately within a single task. The downloaded JAVA version of ANT 1.3.0 (Fan et al., 2002, 2005) was used to conduct the trial. The subject was seated in a silent and secluded room. All external distractions were avoided and subjects were asked to give complete attention to the task at hand. Mental alertness in ANT was calculated in terms of difference score quantified in milliseconds and calculated by subtracting average double-cue RTs from the no-cue RTs. […]

healthy young volunteers [3] = test: Psychomotor Vigilance Task (PVT), sustained attention, Example 2; details: mean ± SD
Source text: Subjects were derived through multiple sources including a healthy volunteer's database and a consumer group's survey agency. The subjects were then screened. […] The subjects with body mass index (BMI) between 18.50 and 25.00 kg/m2 and a resting blood pressure≤140/90 mm Hg were considered eligible. To avoid subjects with psychotic disorders such as anxiety, depression, ADD or ADHD, subjects with Generalized Anxiety Disorder Screening (GAD-7) score≥7 & Patient Health Questionnaire-9 (PHQ-9) score≥14 were excluded from the study. […] Concomitant therapy was strictly prohibited in order to exclude any significant effect on the results. All the subjects were instructed thoroughly on the investigation procedures. Subjects were randomized and allocated to interventional products in each visit, divided in four treatment arms based on randomization chart [SPSS version 10.0, IBM] and similar trend was followed for subsequent visits. […] All these treatments were administered to subjects in the form of capsules which were identical in appearance and packed in duly labeled HDPE bottles. The blinding codes were secured at the site in tamper-evident sealed envelopes with no access to the investigators. Thus, the double blind nature of the data were ensured and strictly followed. […] Composition details of all these IPs are: Subjects reported to the clinic during the morning hours and testing began at early time of day (8:00-9:00 a.m.) for each visit to avoid influence of daily challenges (related to mental and physical stress) on outcomes and the time of day was matched for all three visits to reduce variability in response due to diurnal pattern. […] Subjects were also instructed to obtain sufficient sleep during the night prior to testing which was confirmed using sleep diary. Upon arrival at clinic, subjects were asked to rest quietly for 15-20 minutes after which vital parameters were measured and a standardized meal of approximately 200 calories was provided to control variations from possible digestion confounds. […] Post ingestion of IP, data were collected at 1, 3, and 5 hours. No other food or calorie-containing beverages were provided. Subjects were allowed to drink water as desired. Subjects were allowed to relax in an isolated room at a comfortable temperature and free to use the computer, listen to music or read magazines during the clinic stay period. […] To ensure treatment compliance, product accountability was monitored by clinical research coordinator on the following visit. […] The mean MRT was calculated in milliseconds, which is the time a subject took to press the response button as soon as each stimulus appeared. […]

## Cn1c(=O)c2c(ncn2C)n(C)c1=O [Caffeine, caffeine]
[1]
  alertness: decrease in alertness compared to the placebo group
Healthy young volunteers [2]; 1H: value at 1 hour, PP population, mean ± SD
  ANT-Alertness (Mental Alertness) score: 57.0 ± 18.1 ms
Healthy young volunteers [2]; at one hour
  increase in alertness score from baseline: 8.97 ± 18.20 ms
Healthy young volunteers [2]; at three hours
  decrease in alertness score from baseline: 1.23 ± 18.60 ms
Healthy young volunteers [2]; from Cohen's d
  subjects that would exhibit higher alertness than the subjects in the placebo group: 47%
Healthy young volunteers [2]; in comparison with placebo
  effect size in alertness score, Cohen's d: 0.08
Healthy young volunteers [3]; 1H: value at 1 hour
  PVT-Mean Response Time (Sustained Attention): 290.1 ± 51.6 ms
Healthy young volunteers [3]; 3H: value at 3 hours
  PVT-Mean Response Time (Sustained Attention): 287.6 ± 43.1 ms
Healthy young volunteers [3]; 5H: value at 5 hours
  PVT-Mean Response Time (Sustained Attention): 296.9 ± 51.5 ms
Healthy young volunteers [3]; BL: baseline value
  PVT-Mean Response Time (Sustained Attention): 310.4 ± 103.3 ms
